Laboratory results taken from US20240246942A1, “KINASE INHIBITORS FOR THE TREATMENT OF NEURODEGENERATIVE DISEASES” (priority 2020, published 2024).

What was measured:
Test in all cases: biochemical
[1] = molecular target: T1, panel of 374 wild-type kinases (Homo sapiens, UniProt P41240); conditions: read-out: % Enzyme Activity (relative to DMSO controls), CSK
T1 construct: purchased Reaction Biology Corporation

[2] = molecular target: T2, panel of 374 wild-type kinases (Homo sapiens, UniProt Q9UEE5); conditions: read-out: % Enzyme Activity (relative to DMSO controls), DRAK1/STK17A
T2 construct: purchased Reaction Biology Corporation
T2 sequence (Q9UEE5 1-414): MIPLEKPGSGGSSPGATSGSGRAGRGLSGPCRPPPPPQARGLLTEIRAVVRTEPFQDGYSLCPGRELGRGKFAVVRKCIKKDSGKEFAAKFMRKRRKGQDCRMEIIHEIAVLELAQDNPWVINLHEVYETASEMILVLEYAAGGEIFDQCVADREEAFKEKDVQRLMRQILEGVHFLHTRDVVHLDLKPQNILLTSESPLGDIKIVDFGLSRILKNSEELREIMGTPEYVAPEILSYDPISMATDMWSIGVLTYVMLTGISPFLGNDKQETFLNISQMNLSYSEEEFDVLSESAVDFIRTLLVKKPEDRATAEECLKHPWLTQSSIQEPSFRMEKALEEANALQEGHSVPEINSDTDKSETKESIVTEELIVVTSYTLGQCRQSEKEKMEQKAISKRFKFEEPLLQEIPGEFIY

[3] = molecular target: T3, panel of 374 wild-type kinases (Homo sapiens, UniProt O14920); conditions: read-out: % Enzyme Activity (relative to DMSO controls), IKKb/IKBKB
T3 construct: purchased Reaction Biology Corporation
T3 sequence (O14920 1-756): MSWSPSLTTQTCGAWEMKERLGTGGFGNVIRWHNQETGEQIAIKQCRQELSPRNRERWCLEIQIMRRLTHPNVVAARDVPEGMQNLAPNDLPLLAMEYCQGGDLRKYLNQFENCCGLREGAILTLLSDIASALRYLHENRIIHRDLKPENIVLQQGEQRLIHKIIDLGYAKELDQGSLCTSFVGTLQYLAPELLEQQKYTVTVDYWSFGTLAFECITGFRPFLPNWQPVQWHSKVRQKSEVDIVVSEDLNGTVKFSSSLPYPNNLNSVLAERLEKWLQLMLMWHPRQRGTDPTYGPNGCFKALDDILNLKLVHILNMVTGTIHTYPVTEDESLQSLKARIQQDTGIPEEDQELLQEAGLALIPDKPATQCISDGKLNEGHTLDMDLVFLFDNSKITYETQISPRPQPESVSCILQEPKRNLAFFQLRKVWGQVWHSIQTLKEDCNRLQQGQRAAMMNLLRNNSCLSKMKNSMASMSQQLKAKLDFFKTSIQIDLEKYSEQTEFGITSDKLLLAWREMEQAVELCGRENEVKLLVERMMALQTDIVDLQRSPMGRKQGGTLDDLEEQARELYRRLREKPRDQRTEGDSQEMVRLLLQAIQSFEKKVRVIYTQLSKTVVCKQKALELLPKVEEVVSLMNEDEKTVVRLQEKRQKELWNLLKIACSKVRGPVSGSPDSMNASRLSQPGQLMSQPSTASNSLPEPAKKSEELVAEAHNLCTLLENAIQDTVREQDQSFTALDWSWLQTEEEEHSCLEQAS

[4] = molecular target: T4, panel of 374 wild-type kinases (Homo sapiens, UniProt Q5S007); conditions: read-out: % Enzyme Activity (relative to DMSO controls), LRRK2
T4 construct: purchased Reaction Biology Corporation
T4 sequence (Q5S007 whole entry): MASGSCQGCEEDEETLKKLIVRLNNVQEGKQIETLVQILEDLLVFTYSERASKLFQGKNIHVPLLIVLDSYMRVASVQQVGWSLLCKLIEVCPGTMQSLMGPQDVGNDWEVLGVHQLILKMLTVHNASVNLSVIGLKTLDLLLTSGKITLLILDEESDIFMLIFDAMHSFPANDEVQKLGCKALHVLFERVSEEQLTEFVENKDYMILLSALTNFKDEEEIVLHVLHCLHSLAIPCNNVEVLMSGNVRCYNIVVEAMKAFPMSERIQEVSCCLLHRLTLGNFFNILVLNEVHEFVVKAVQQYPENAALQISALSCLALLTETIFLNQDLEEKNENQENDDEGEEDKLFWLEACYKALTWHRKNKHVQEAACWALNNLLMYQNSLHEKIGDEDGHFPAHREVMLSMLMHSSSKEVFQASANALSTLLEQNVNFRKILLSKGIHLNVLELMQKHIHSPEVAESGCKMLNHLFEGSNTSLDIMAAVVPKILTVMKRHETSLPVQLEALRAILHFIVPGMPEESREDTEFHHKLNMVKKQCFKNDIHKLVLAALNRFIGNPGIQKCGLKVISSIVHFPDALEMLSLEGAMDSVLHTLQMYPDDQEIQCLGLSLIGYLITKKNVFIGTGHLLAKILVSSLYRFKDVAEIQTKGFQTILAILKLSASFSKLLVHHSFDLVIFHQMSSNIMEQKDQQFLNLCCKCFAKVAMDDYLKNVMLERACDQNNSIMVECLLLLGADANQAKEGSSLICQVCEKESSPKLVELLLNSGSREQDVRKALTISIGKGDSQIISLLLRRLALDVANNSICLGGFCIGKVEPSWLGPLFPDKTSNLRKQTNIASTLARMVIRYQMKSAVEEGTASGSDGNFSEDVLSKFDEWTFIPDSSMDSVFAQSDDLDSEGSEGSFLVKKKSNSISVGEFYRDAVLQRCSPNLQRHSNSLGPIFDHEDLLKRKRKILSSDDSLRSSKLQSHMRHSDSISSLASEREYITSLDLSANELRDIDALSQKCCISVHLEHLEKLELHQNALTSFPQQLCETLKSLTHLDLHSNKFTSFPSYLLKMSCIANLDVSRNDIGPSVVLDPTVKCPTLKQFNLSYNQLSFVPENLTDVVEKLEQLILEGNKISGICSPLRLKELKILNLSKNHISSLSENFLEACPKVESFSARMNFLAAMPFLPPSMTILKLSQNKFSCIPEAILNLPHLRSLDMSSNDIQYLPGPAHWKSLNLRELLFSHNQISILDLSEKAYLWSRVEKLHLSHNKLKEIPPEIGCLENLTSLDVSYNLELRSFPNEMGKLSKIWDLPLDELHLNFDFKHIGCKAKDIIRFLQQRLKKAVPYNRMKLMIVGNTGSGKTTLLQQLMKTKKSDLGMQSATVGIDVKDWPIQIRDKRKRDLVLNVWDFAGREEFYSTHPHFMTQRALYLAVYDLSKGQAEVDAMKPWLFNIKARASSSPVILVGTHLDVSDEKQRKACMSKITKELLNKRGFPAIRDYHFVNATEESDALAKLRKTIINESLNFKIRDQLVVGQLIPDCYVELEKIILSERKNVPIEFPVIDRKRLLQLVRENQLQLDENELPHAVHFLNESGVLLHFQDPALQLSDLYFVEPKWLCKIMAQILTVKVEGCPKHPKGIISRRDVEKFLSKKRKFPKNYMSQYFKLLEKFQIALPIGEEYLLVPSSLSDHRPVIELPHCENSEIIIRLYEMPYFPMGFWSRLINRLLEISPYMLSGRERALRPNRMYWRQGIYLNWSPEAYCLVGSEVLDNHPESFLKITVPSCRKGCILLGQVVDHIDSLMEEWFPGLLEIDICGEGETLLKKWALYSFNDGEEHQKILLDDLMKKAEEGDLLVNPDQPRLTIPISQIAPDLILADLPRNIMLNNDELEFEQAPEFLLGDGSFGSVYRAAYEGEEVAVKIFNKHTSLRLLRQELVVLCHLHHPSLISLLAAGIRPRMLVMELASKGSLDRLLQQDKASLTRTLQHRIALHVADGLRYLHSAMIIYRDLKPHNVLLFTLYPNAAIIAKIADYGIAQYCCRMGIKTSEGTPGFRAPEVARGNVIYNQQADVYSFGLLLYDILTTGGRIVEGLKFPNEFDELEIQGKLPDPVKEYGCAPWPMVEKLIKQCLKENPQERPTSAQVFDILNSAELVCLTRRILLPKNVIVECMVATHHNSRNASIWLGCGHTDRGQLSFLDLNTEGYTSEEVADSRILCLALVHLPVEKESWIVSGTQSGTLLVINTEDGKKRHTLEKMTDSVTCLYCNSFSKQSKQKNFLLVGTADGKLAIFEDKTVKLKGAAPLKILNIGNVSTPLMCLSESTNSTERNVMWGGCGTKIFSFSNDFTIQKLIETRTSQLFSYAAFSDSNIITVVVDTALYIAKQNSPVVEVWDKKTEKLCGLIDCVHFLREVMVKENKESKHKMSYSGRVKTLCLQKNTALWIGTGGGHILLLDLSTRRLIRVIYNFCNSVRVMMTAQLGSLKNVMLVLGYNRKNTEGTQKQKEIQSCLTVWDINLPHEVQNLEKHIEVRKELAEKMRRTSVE

[5] = molecular target: T5, panel of 374 wild-type kinases (Homo sapiens, UniProt Q96PN8); conditions: read-out: % Enzyme Activity (relative to DMSO controls), kinase TSSK3/STK22C
T5 construct: purchased Reaction Biology Corporation
T5 sequence (Q96PN8 1-268): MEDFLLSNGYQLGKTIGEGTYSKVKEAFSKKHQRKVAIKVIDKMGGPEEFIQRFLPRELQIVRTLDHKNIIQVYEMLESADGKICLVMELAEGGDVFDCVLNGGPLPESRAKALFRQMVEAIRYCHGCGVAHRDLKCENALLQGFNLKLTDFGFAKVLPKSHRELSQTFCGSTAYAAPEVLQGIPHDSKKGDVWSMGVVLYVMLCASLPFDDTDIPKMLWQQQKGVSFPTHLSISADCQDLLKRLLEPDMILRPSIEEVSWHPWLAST

[6] = molecular target: T6, panel of 374 wild-type kinases (Homo sapiens, UniProt Q96L34); conditions: read-out: % Enzyme Activity (relative to DMSO controls), MARK4
T6 construct: purchased Reaction Biology Corporation
T6 sequence (Q96L34 1-752): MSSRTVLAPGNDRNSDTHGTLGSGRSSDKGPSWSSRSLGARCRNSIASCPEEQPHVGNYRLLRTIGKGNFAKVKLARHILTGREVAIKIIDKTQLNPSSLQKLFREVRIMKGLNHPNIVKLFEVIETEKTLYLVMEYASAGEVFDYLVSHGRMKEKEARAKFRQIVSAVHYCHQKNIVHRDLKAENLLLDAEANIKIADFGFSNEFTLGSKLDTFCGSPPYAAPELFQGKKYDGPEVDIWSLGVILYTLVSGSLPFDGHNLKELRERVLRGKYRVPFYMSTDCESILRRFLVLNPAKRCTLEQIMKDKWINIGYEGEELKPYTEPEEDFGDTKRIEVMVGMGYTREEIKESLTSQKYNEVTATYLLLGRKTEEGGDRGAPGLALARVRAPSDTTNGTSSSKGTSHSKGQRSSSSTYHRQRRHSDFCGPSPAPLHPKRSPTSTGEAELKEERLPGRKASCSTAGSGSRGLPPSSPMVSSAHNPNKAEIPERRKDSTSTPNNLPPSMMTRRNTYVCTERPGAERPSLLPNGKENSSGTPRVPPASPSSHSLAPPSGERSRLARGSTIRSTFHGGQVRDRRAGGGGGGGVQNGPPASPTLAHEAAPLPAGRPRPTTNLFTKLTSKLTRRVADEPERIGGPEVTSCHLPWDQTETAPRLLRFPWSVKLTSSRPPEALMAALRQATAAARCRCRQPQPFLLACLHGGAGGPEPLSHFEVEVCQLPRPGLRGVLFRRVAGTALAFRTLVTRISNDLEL

T1 sequence (P41240 whole entry): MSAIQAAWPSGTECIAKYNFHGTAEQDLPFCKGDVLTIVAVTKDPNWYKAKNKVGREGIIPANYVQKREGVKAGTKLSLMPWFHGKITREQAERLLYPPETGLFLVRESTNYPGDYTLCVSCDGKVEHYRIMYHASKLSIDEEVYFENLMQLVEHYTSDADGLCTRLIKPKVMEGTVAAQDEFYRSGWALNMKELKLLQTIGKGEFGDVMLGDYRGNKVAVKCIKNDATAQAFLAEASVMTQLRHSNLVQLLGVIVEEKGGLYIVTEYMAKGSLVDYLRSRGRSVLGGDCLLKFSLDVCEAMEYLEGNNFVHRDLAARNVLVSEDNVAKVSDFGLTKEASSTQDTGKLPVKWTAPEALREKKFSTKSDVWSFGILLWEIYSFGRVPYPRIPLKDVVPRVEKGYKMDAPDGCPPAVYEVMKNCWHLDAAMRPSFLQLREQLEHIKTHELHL

Structure (SMILES)	remaining activity at 5 µM [1] [%]	remaining activity at 5 µM [2] [%]	remaining activity at 5 µM [3] [%]	remaining activity at 5 µM [4] [%]	remaining activity at 5 µM [5] [%]	remaining activity at 5 µM [6] [%]	remaining activity at 10 µM ([1]; 10 uM) [%]	remaining activity at 10 µM ([2]; 10 uM) [%]	remaining activity at 10 µM ([3]; 10 uM) [%]	remaining activity at 10 µM ([4]; 10 uM) [%]	remaining activity at 10 µM ([5]; 10 uM) [%]	remaining activity at 10 µM ([6]; 10 uM) [%]
O=C(Nc1cnn(-c2csc(C(=O)NC3COC3)c2)c1)Nc1ccccc1Cl [Compound 17, 4-(4-(3-(2-chlorophenyl)ureido)-1H-pyrazol-1-yl)-N-(oxetan-3-yl)thiophene-2-carboxamide]	99.2	98.4	95.6	88.2	97.7	108						
O=C(Nc1cnn(-c2csc(C(=O)NC3COC3)c2)c1)Nc1c(F)cccc1Cl [Compound 25, 4-(4-(3-(2-chloro-6-fluorophenyl)ureido)-1H-pyrazol-1-yl)-N-(oxetan-3-yl)thiophene-2-carboxamide]	97.5	89.4	94.7	91.3	101	97.9						
Cc1sc(C(=O)NC2COC2)cc1-n1cc(NC(=O)Nc2c(F)cccc2Cl)cn1 [Compound 27, 4-(4-(3-(2-chloro-6-fluorophenyl)ureido)-1H-pyrazol-1-yl)-5-methyl-N-(oxetan-3-yl)thiophene-2-carboxamide]							98	111	86.8	101	100	108
